Consider four molecules from patent US8883963B2 (Cadila Healthcare Limited, priority 2007, dated 2014).

Non-standard residues stand in square brackets, D forms with d. Residues, ends and D or L forms follow the SMILES beside them. ξ: configuration not given here. *: point of attachment. X9 = CCc1cc(OC)ccc1-c1ccc(CC(NC(=S)[C@H](CC(=O)O)N*)C(=S)NC(CCCc2ccccc2F)C(N)=O)cc1; X5 = CCc1cc(OC)ccc1-c1ccc(CC(N*)C(=S)NC(CCCc2ccccc2F)C(N)=O)cc1; Leu(5,5,5,5',5',5'-F6) = N[C@@H](CC(C(F)(F)F)C(F)(F)F)C(=O)O; ξBip(2'-Et-4'-OMe) = CCc1cc(OC)ccc1-c1ccc(CC(N)C(=O)O)cc1; ξNva(5-(3,5-Me2-Ph)) = Cc1cc(C)cc(CCCC(N)C(=O)O)c1; ξαMePhe(2-F) = CC(N)(Cc1ccccc1F)C(=O)O; aThr = C[C@H](O)[C@H](N)C(=O)O; ξhhPhe = NC(CCCc1ccccc1)C(=O)O; Ac5c = NC1(C(=O)O)CCCC1; Aib = CC(C)(N)C(=O)O

Experiment [1] relates to RIN5F (Rat Insulinoma) cells. Put plainly: In vitro glucose-dependent insulin secretion (RIN5F cell assay screening protocol). To be noted: 16.7 mM glucose load. The class given is cell-based. As for the experimental part: RIN5F (Rat Insulinoma) cells were cultured in RPMI 1640 medium supplemented with sodium pyruvate (1 mM) HEPES and Glucose (4.5 g/L) in a humidified incubator (5% CO2), at 37° C. After trypsinization, RIN5F cells were seeded at a concentration of 0.2×10^6 cells per well, in 12 well plates.
The buffer was replaced after 40 min. and the cells were incubated (37° C.) with the test peptidomimetics, at different concentration, for 30 min., both in the presence (16.7 mM) and absence (0 mM) of glucose load. The supernatant was collected and the insulin amount was measured by ultra sensitive Rat insulin ELISA kit (Crystal Chem, IL). The protein was estimated in the supernatant using Bicinchoninic Acid kit, according to the manufacturer's protocol (Sigma Aldrich, MO). The total insulin content obtained in Pico-gram (pg) was divided with the total protein (μg) in order to normalize for differences in cell density between wells.

The target in another experiment is T1, human glucagon receptor (Homo sapiens, UniProt P47871).
T1 construct: The full-length cDNA was cloned in pcDNA3.1 (Invitrogen); expressed in transfected cells
T1 sequence (P47871 26-477): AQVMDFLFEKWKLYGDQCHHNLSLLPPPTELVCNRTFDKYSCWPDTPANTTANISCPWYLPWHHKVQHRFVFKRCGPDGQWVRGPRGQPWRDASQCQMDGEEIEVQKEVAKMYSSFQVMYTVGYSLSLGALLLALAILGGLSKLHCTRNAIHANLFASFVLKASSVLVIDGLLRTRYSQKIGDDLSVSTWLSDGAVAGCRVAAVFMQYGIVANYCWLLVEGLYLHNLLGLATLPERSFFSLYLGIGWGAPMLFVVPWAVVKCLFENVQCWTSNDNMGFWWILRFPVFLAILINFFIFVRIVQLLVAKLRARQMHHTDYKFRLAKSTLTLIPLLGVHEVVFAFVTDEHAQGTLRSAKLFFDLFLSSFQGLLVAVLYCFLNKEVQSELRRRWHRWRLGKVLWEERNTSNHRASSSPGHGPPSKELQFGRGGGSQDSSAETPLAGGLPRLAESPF
As to the kind of experiment: In vitro human glucagon antagonist activity (inhibition of cAMP production) in CHO/human glucagon R cells. The class given is cell-based. To be noted: with saturated concentration of glucagon peptide. As for the experimental part: The CHO-K1 cells (CRL 9618) were obtained from American Type Culture Collection (Rockville, Md.). CHO cells were grown in Ham's F12 medium containing L-Glutamine (2 mM), HEPES (25 mM), NaHCO3 (1.1 g/L) and supplemented with newborn Calf Serum (NBCS; 10%), Penicillin (50 U/ml (v/v)) and Streptomycin (50 ug/ml (v/v)). Cells were split every 3 days 1:8.
The full-length cDNA was cloned in pcDNA3.1 (Invitrogen). […] Clones expressing the receptor were generated by G418 (800 μg/ml active, Sigma) selection. The stable clones were thereafter maintained at 500 ug/ml (G418). The selected clone was used between passages 9-25 for cAMP assays.
The cells were trypsinized using 2 ml of TPVG (0.25% trypsin, 0.53 mM EDTA, 1.38-mM glucose). The trypsin was inactivated using Ham's F12 medium containing 10% NBCS and the cells were suspended in 2 ml of complete medium. […] The medium was aspirated off from the 12 well plate and the cells were washed once using Ham's F12 (plain). The cells were incubated at 37° C. with 500 ul of Ham's F12+1% BSA+0.125 mM RO-20 for 30 min. […] After the incubation, the medium was removed and cells were washed once with plain Ham's F12. Subsequently, the cells were lysed by adding 500 ul of ice cold 0.1 N HCl to each well and shaking for 30 minutes at 200 rpm. The cells were then scrapped, the lysate was collected in micro centrifuge tubes and centrifuged at 12000 rpm for 10 min to remove the debris. 300 ul of supernatant from each micro-centrifuge tube was then removed into a glass tube and dried under N2 for 30 min, for cAMP estimation. The total cAMP was estimated from the sample according to the manufacturer's protocol using Cyclic AMP immunoassay kit (R&D systems, Minneapolis. MN). The remaining supernatant is used to determine the protein concentration using micro BCA (Sigma). Data is calculated as percent of control (Vehicle: water) and expressed as Mean+SD.

For `CCc1cc(OC)ccc1-c1ccc(CC(NC(=O)[C@H](CC(=O)O)NC(=O)[C@H](CO)NC(=O)[C@@H](NC(=O)[C@H](Cc2ccccc2)NC(=O)[C@@H](NC(=O)CNC(=O)[C@H](CCC(N)=O)NC(=O)C2(NC(=O)[C@@H](N)Cc3c[nH]cn3)CCCC2)[C@@H](C)O)[C@@H](C)O)C(=O)NC(CCCc2cc(C)cc(C)c2)C(N)=O)cc1` (stereo partly shown) [compound 26] (H-H[Ac5c]QGTFTSD[ξBip(2'-Et-4'-OMe)][ξNva(5-(3,5-Me2-Ph))]-NH2), the Insulin secretion in experiment [1] (0.1 nM test compd.) came out at 16.6 ± 0.41 pg/µg/h; in experiment [1] (1 nM test compd.), 22.9 ± 0.32 pg/µg/h; in experiment [1] (10 nM test compd.), 36.6 ± 0.19 pg/µg/h. For the same molecule, the “Human Glucagon receptor antagonistic activity shown as inhibition of cAMP production of Glucagon peptide” value at human glucagon receptor (1 nM test compound) came to 15 ± 0.11 pmol/ml/μg prt; at human glucagon receptor (10 nM test compound), 12 ± 0.13 pmol/ml/μg prt; at human glucagon receptor (100 nM test compound), 8 ± 0.09 pmol/ml/μg prt; at human glucagon receptor (1 μM test compound) it was 4 ± 0.01 pmol/ml/μg prt; on human glucagon receptor (10 μM test compound), 2 ± 0.08 pmol/ml/μg prt.
On to `CCc1cc(OC)ccc1-c1ccc(CC(NC(=O)[C@H](CC(=O)O)NC(=O)[C@H](CO)NC(=O)[C@@H](NC(=O)C(C)(Cc2ccccc2F)NC(=O)[C@@H](NC(=O)CNC(=O)[C@H](CCC(N)=O)NC(=O)C(C)(C)NC(=O)[C@@H](N)Cc2c[nH]cn2)[C@H](C)O)[C@H](C)O)C(=O)NC(CCCc2ccccc2)C(N)=O)cc1` (stereo partly shown) [compound 113] (H-H[Aib]QG[aThr][ξαMePhe(2-F)][aThr]SD[ξBip(2'-Et-4'-OMe)][ξhhPhe]-NH2), for which the Insulin secretion in experiment [1] (0.1 nM test compd.) turned out to be 15.6 ± 0.31 pg/µg/h; in experiment [1] (1 nM test compd.) it was 21.8 ± 0.16 pg/µg/h; in experiment [1] (10 nM test compd.), 35.6 ± 0.28 pg/µg/h.
For `CCc1cc(OC)ccc1-c1ccc(CC(NC(=S)[C@H](CC(=O)O)NC(=O)[C@H](CO)NC(=O)[C@@H](NC(=O)C(C)(Cc2ccccc2F)NC(=O)[C@@H](NC(=O)CNC(=O)[C@H](CCC(N)=O)NC(=O)C(C)(C)NC(=O)[C@H](Cc2c[nH]cn2)NC(C)=O)[C@H](C)O)[C@H](C)O)C(=S)NC(CCCc2ccccc2F)C(N)=O)cc1` (stereo partly shown) [compound 175] (Ac-H[Aib]QG[aThr][ξαMePhe(2-F)][aThr]S-X9), in that order: 15.6 ± 0.33 pg/µg/h, 21.8 ± 0.16 pg/µg/h and 35.6 ± 0.26 pg/µg/h.
Turning to `CCc1cc(OC)ccc1-c1ccc(CC(NC(=O)[C@H](CC(=O)O)NC(=O)[C@H](CO)NC(=O)[C@@H](NC(=O)C(C)(Cc2ccccc2F)NC(=O)[C@@H](NC(=O)CNC(=O)[C@H](CC(C(F)(F)F)C(F)(F)F)NC(=O)C(C)(C)NC(=O)[C@@H](N)Cc2c[nH]cn2)[C@H](C)O)[C@H](C)O)C(=S)NC(CCCc2ccccc2F)C(N)=O)cc1` (stereo partly shown) [compound 218] (H-H[Aib][Leu(5,5,5,5',5',5'-F6)]G[aThr][ξαMePhe(2-F)][aThr]SD-X5), the Insulin secretion in experiment [1] (0.1 nM test compd.) is 12.3 ± 0.33 pg/µg/h; in experiment [1] (1 nM test compd.), 14.8 ± 0.16 pg/µg/h; in experiment [1] (10 nM test compd.), 28.1 ± 0.22 pg/µg/h. The “Human Glucagon receptor antagonistic activity shown as inhibition of cAMP production of Glucagon peptide” value at human glucagon receptor (1 nM test compound) is 9 ± 0.11 pmol/ml/μg prt; at human glucagon receptor (10 nM test compound) it was 6 ± 0.12 pmol/ml/μg prt; at human glucagon receptor (100 nM test compound) it was 5 ± 0.14 pmol/ml/μg prt; at human glucagon receptor (1 μM test compound) it was 3 ± 0.22 pmol/ml/μg prt; on human glucagon receptor (10 μM test compound) it was 0 pmol/ml/μg prt.
